Consider three compounds from the NIST ThermoML archive (doi:10.1016/j.tca.2017.03.027).

Structures are written as SMILES. Numbers after ± are expanded uncertainties.

The nature of data set [1]: Molar enthalpy of transition or fusion. To be noted: Crystal; DSC.
The conditions of data set [2]: Crystal; DTA.

Consider `CCCCCCCCCC(=O)O` [decanoic acid], for which the “Molar enthalpy of transition or fusion” value in data set [1] came to 6.86 ± 0.311 kcal/mol. For the same compound, in data set [2], the Normal melting temperature is 31.10 ± 4 °C.

For the compound `CCCCCCCCCCCCCCCCCC(=O)O` [octadecanoic acid], in data set [1], the “Molar enthalpy of transition or fusion” value turned out to be 15.1 ± 0.669 kcal/mol. Further, the Normal melting temperature in data set [2] amounted to 69.00 ± 4 °C.

For `CCCCCCCCCCCCCC(=O)O` [tetradecanoic acid], in data set [1], the “Molar enthalpy of transition or fusion” value came to 10.2 ± 0.454 kcal/mol. In addition, the Normal melting temperature in data set [2] came out at 53.70 ± 4 °C.
